Test results taken from patent US11203574B2 (BioCryst Pharmaceuticals, Inc., priority 2014, dated 2021).

Molecular target: human plasma kallikrein (Homo sapiens (Human), UniProt P03952)
Assay: Plasma kallikrein activity assay (chromogenic substrate S2302)
Type: biochemical
Conditions: 2 nM kallikrein, 80 μM S2302, 30° C., pH 7.8; Ki by Cheng-Prusoff equation; values given as ranges; read-out: Ki

human plasma kallikrein, sequence (P03952 whole entry, looked up): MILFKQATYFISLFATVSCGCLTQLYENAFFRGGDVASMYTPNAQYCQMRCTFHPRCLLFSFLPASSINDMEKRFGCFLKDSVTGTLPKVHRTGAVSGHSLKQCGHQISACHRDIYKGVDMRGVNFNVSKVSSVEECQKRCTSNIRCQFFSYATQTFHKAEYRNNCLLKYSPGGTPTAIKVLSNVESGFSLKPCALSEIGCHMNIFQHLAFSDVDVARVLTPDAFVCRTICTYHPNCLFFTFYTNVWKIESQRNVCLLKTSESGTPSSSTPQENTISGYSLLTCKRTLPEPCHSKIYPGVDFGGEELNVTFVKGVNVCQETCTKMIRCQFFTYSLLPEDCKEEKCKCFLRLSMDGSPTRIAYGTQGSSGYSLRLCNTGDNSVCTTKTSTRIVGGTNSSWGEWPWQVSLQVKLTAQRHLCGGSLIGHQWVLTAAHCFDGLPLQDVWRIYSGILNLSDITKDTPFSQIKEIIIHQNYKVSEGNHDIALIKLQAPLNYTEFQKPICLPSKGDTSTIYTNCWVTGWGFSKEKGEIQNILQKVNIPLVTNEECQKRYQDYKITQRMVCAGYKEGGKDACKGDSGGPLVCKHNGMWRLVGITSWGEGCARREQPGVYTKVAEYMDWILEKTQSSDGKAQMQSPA
human plasma kallikrein, sequence (P03952 whole entry partner, looked up): as the sequence (P03952 whole entry, looked up) above

`COc1cccc(C(NCC2CC2)c2cccc(NC(=O)c3cc(C(F)(F)F)nn3-c3cccc(CN)c3)c2)c1O` (centres unmarked) [151g, 1-(3-(Aminomethyl)phenyl)-N-(3-((cyclopropylmethylamino)(2-hydroxy-3-methoxyphenyl)methyl)phenyl)-3-(trifluoromethyl)-1H-pyrazole-5-carboxamide] and `COc1ccc(C(NCC2CC2)c2cccc(NC(=O)c3cc(C(F)(F)F)nn3-c3cccc(CN)c3)c2)c2ccccc12` (centres unmarked) [154e, 1-(3-(aminomethyl)phenyl)-N-(3-((cyclopropylmethylamino)(4-methoxynaphthalen-1-yl)methyl)phenyl)-3-(trifluoromethyl)-1H-pyrazole-5-carboxamide] fall in the same range of Ki: 0.1 to 50 nM for the first, 0.1 to 50 nM for the second.

Compared with `CN1CCCN(C(CCC2CC2)c2ccc(F)c(NC(=O)c3cc(C(F)(F)F)nn3-c3cccc(CN)c3)c2)CC1` (centres unmarked) [251e, 1-(3-(aminomethyl)phenyl)-N-(5-(3-cyclopropyl-1-(4-methyl-1,4-diazepan-1-yl)propyl)-2-fluorophenyl)-3-(trifluoromethyl)-1H-pyrazole-5-carboxamide], `NCc1cccc(-n2nc(C(F)(F)F)cc2C(=O)Nc2cc(C(CCC3CC3)n3ccc(=O)[nH]c3=O)ccc2F)c1` (centres unmarked) [263d, 1-(3-(aminomethyl)phenyl)-N-(5-(3-cyclopropyl-1-(2,4-dioxo-3,4-dihydropyrimidin-1(2H)-yl)propyl)-2-fluorophenyl)-3-(trifluoromethyl)-1H-pyrazole-5-carboxamide] is lower in Ki: 50 to 100 nM for the first, 0.1 to 50 nM for the second.

`NCc1cccc(-n2nc(C(F)(F)F)cc2C(=O)Nc2cc(C(NCC3CC3)c3nccs3)ccc2F)c1` (centres unmarked) [101e, 1-(3-(Aminomethyl)phenyl)-N-(5-((cyclopropylmethylamino)(thiazol-2-yl)methyl)-2-fluorophenyl)-3-(trifluoromethyl)-1H-pyrazole-5-carboxamide] and `NCc1cccc(-n2nc(C(F)(F)F)cc2C(=O)Nc2cccc(C(NCC3CC3)c3nccs3)c2)c1` (centres unmarked) [85c, 1-(3-(aminomethyl)phenyl)-N-(3-((cyclopropylmethylamino)(thiazol-2-yl)methyl)phenyl)-3-(trifluoromethyl)-1H-pyrazole-5-carboxamide] fall in the same range of Ki: 0.1 to 50 nM for the first, 0.1 to 50 nM for the second.

First: CCCCC(c1ccccc1)c1cccc(NC(=O)c2cc(C(F)(F)F)nn2-c2cccc(CN)c2)c1 (centres unmarked) [32f, 1-(3-(aminomethyl)phenyl)-N-(3-(1-phenylpentyl)phenyl)-3-(trifluoromethyl)-1H-pyrazole-5-carboxamide]
Second: NCc1cccc(-n2nc(C(F)(F)F)cc2C(=O)Nc2cccc(C(CCC3CC3)c3ccccc3)c2)c1 (centres unmarked) [78d, 1-(3-(aminomethyl)phenyl)-N-(3-(3-cyclopropyl-1-phenylpropyl)phenyl)-3-(trifluoromethyl)-1H-pyrazole-5-carboxamide]
The Ki of the first is higher: 50 to 100 nM for the first, 0.1 to 50 nM for the second. The second binds more tightly here.

`CC(=O)Nc1ccc(C(OCC2CC2)c2cccc(NC(=O)c3cc(C(F)(F)F)nn3-c3cccc(CN)c3)c2)cc1` (centres unmarked) [147e, N-(3-((4-acetamidophenyl)(cyclopropylmethoxy)methyl)phenyl)-1-(3-(aminomethyl)phenyl)-3-(trifluoromethyl)-1H-pyrazole-5-carboxamide] and `NCc1cccc(-n2nc(C(F)(F)F)cc2C(=O)Nc2cccc(C(OCC3CC3)c3ccccc3)c2)c1` (centres unmarked) [18k, 1-(3-(aminomethyl)phenyl)-N-(3-((cyclopropylmethoxy)(phenyl)methyl)phenyl)-3-(trifluoromethyl)-1H-pyrazole-5-carboxamide] fall in the same range of Ki: 0.1 to 50 nM for the first, 0.1 to 50 nM for the second.

`CC(C)C(=O)NC(CCC1CC1)(c1cccnc1)c1ccc(F)c(NC(=O)c2cc(C(F)(F)F)nn2-c2cccc(CN)c2)c1` (single isomer, unassigned; (-)) [244j, (−)-1-(3-(aminomethyl)phenyl)-N-(5-(3-cyclopropyl-1-isobutyramido-1-(pyridin-3-yl)propyl)-2-fluorophenyl)-3-(trifluoromethyl)-1H-pyrazole-5-carboxamide] and `NCc1cccc(-n2nc(C(F)(F)F)cc2C(=O)Nc2cccc(C(O)(CCC3CC3)c3cccnc3)c2)c1` (single isomer, unassigned; (+)) [47h, (+)-1-(3-(aminomethyl)phenyl)-N-(3-(3-cyclopropyl-1-hydroxy-1-(pyridin-3-yl)propyl)phenyl)-3-(trifluoromethyl)-1H-pyrazole-5-carboxamide] fall in the same range of Ki: 0.1 to 50 nM for the first, 0.1 to 50 nM for the second.

First: Nc1nccc2ccc(-n3nc(C(F)(F)F)cc3C(=O)Nc3cc(C(CCC4CC4)n4ccc(=O)[nH]c4=O)ccc3F)cc12 (centres unmarked) [269b, 1-(1-aminoisoquinolin-7-yl)-N-(5-(3-cyclopropyl-1-(2,4-dioxo-3,4-dihydropyrimidin-1(2H)-yl)propyl)-2-fluorophenyl)-3-(trifluoromethyl)-1H-pyrazole-5-carboxamide]
Second: Nc1nccc2ccc(-n3nc(C(=O)Nc4cc(C(N)(CCC5CC5)c5ccncc5)ccc4F)cc3C(F)(F)F)cc12 (single isomer, unassigned; (+)) [268g, (+)-N-(5-(1-amino-3-cyclopropyl-1-(pyridin-4-yl)propyl)-2-fluorophenyl)-1-(1-aminoisoquinolin-7-yl)-5-(trifluoromethyl)-1H-pyrazole-3-carboxamide]
The Ki of the first is lower: 0.1 to 50 nM for the first, 50 to 100 nM for the second.

First: CCC(CO)NC(c1ccccc1)c1cccc(NC(=O)c2cc(C(F)(F)F)nn2-c2cccc(CN)c2)c1 (centres unmarked) [168b, 1-(3-(Aminomethyl)phenyl)-N-(3-(((1-hydroxybutan-2-yl)amino)(phenyl)methyl)phenyl)-3-(trifluoromethyl)-1H-pyrazole-5-carboxamide]
Second: CC(C)COC(c1ccccc1)c1cccc(NC(=O)c2cc(C(F)(F)F)nn2-c2cccc(CN)c2)c1 (centres unmarked) [18i, 1-(3-(aminomethyl)phenyl)-N-(3-(isobutoxy(phenyl)methyl)phenyl)-3-(trifluoromethyl)-1H-pyrazole-5-carboxamide]
The Ki of the first is lower: 0.1 to 50 nM for the first, 50 to 100 nM for the second. The first binds more tightly here.

`CCCN(c1ccccc1)c1cccc(NC(=O)c2cc(C(F)(F)F)nn2-c2cccc(CN)c2)c1F` [29e, 1-(3-(aminomethyl)phenyl)-N-(2-fluoro-3-(phenyl(propyl)amino)phenyl)-3-(trifluoromethyl)-1H-pyrazole-5-carboxamide] and `NCc1cccc(-n2nc(C(F)(F)F)cc2C(=O)Nc2cccc(C(O)(CCC3CC3)c3ccccc3)c2)c1` (racemic) [46g, 1-(3-(aminomethyl)phenyl)-N-(3-(3-cyclopropyl-1-hydroxy-1-phenylpropyl)phenyl)-3-(trifluoromethyl)-1H-pyrazole-5-carboxamide] fall in the same range of Ki: 0.1 to 50 nM for the first, 0.1 to 50 nM for the second.

`NCc1cccc(-n2nc(C(F)(F)F)cc2C(=O)Nc2cccc(C(OCC3CC3)c3cccnc3)c2)c1` (racemic) [44c, 1-(3-(aminomethyl)phenyl)-N-(3-((cyclopropylmethoxy)(pyridin-3-yl)methyl)phenyl)-3-(trifluoromethyl)-1H-pyrazole-5-carboxamide] and `NCc1cccc(-n2nc(C(F)(F)F)cc2C(=O)Nc2cccc(C(NCC3CC3)c3ccncc3)c2)c1` (centres unmarked) [86g, 1-(3-(aminomethyl)phenyl)-N-(3-((cyclopropylmethylamino)(pyridin-4-yl)methyl)phenyl)-3-(trifluoromethyl)-1H-pyrazole-5-carboxamide] fall in the same range of Ki: 0.1 to 50 nM for the first, 0.1 to 50 nM for the second.

`NCc1cccc(-n2nc(C(F)(F)F)cc2C(=O)Nc2cccc(C(O)(CCC3CC3)c3ccncc3)c2)c1` (centres unmarked) [92g, 1-(3-(aminomethyl)phenyl)-N-(3-(3-cyclopropyl-1-hydroxy-1-(pyridin-4-yl)propyl)phenyl)-3-(trifluoromethyl)-1H-pyrazole-5-carboxamide] and `NCc1cccc(-n2nc(C(F)(F)F)cc2C(=O)Nc2cccc(C(OCC3CC3)c3cccnc3)c2)c1` (single isomer, unassigned; (+)) [44d, (+)-1-(3-(aminomethyl)phenyl)-N-(3-((cyclopropylmethoxy)(pyridin-3-yl)methyl)phenyl)-3-(trifluoromethyl)-1H-pyrazole-5-carboxamide] fall in the same range of Ki: 0.1 to 50 nM for the first, 0.1 to 50 nM for the second.

`NCc1cccc(-n2nc(C(F)(F)F)cc2C(=O)Nc2cc(C(NCC3CC3)c3cccnc3)ccc2Cl)c1` (centres unmarked) [96f, 1-(3-(Aminomethyl)phenyl)-N-(2-chloro-5-((cyclopropylmethylamino)(pyridin-3-yl)methyl)phenyl)-3-(trifluoromethyl)-1H-pyrazole-5-carboxamide] and `NCc1cccc(-n2nc(C(F)(F)F)cc2C(=O)Nc2cc(C(NCC3CC3)c3ccncc3)ccc2F)c1` (centres unmarked) [132f, 1-(3-(aminomethyl)phenyl)-N-(5-(((cyclopropylmethyl)amino)(pyridin-4-yl)methyl)-2-fluorophenyl)-3-(trifluoromethyl)-1H-pyrazole-5-carboxamide] fall in the same range of Ki: 0.1 to 50 nM for the first, 0.1 to 50 nM for the second.

`NCc1cccc(-n2nc(C(F)(F)F)cc2C(=O)Nc2cccc(C(NCC3CC3)c3ccc(O)c(Br)c3)c2)c1` (centres unmarked) [207j, 1-(3-(Aminomethyl)phenyl)-N-(3-((3-bromo-4-hydroxyphenyl)(cyclopropylmethylamino)methyl)phenyl)-3-(trifluoromethyl)-1H-pyrazole-5-carboxamide] and `NCc1cccc(-n2nc(C(F)(F)F)cc2C(=O)Nc2cccc(C(NCC3CC3)c3ccc(Cl)cc3)c2)c1` (centres unmarked) [199f] fall in the same range of Ki: 0.1 to 50 nM for the first, 0.1 to 50 nM for the second.

`NCc1cccc(-n2nc(C(F)(F)F)cc2C(=O)Nc2cccc(C(NCC3CC3)c3ccc4ccccc4c3)c2)c1` (centres unmarked) [128g, 1-(3-(aminomethyl)phenyl)-N-(3-((cyclopropylmethylamino)(naphthalen-2-yl)methyl)phenyl)-3-(trifluoromethyl)-1H-pyrazole-5-carboxamide] and `NCc1cccc(-n2nc(C(F)(F)F)cc2C(=O)Nc2cccc(C(NCC3CC3)c3ccccn3)c2)c1` (centres unmarked) [83c, 1-(3-(aminomethyl)phenyl)-N-(3-((cyclopropylmethylamino)(pyridin-2-yl)methyl)phenyl)-3-(trifluoromethyl)-1H-pyrazole-5-carboxamide] fall in the same range of Ki: 0.1 to 50 nM for the first, 0.1 to 50 nM for the second.

`CN(C)c1ccc(C(NCC2CC2)c2cccc(NC(=O)c3cc(C(F)(F)F)nn3-c3cccc(CN)c3)c2)c2ccccc12` (centres unmarked) [126g, 2-(3-Aminomethyl-phenyl)-5-trifluoromethyl-2H-pyrazole-3-carboxylic acid {3-[(cyclopropylmethyl-amino)-(4-dimethylamino-naphthalen-1-yl)-methyl]-phenyl}-amide] gave a Ki of 0.1 to 50 nM.
